Assay results as given in PubChem BioAssay AID180 (DTP/NCI, 2004).
“And” between values parts separate entries of the source, which are not always exact repeats. Equal entries are not always repeated.

Test system: BDF1 mice, Adenocarcinoma 755 s.c., tumor weight T/C
Experiment: NCI In Vivo Anticancer Drug Screen. Data for tumor model Adenocarcinoma 755 (subcutaneous) in B6D2F1 (BDF1) mice
Conditions: endpoint: mean tumor weight, higher = larger tumour
Method in brief: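 Readout: T/C, i.e. treated-group measurement over vehicle-control measurement. Endpoint is survival or tumor size in tumor-bearing mice given compound.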

[1] = dose: 150.0 mg/kg/injection, schedule: Q01DX011 (ip), vehicle: carboxymethylcellulose (CMC)
[2] = dose: 25.0 mg/kg/injection, schedule: Q01DX011 (ip), vehicle: methylcellulose (MC)
[3] = dose: 50.0 mg/kg/injection, schedule: Q01DX011 (ip), vehicle: methylcellulose (MC)
[4] = dose: 100.0 mg/kg/injection, schedule: Q01DX011 (ip), vehicle: methylcellulose (MC)

SMILES: O=C(NP(=O)(N1CC1)N1CC1)OCc1ccccc1
- T/C (dose: 0.38 mg/kg/injection, schedule: Q01DX011 (ip), vehicle: saline): 68 % of control
- T/C (dose: 0.75 mg/kg/injection, schedule: Q01DX011 (ip), vehicle: saline): 35 % of control
- T/C (dose: 1.5 mg/kg/injection, schedule: Q01DX011 (ip), vehicle: saline): 53 % of control
- T/C (dose: 2.25 mg/kg/injection, schedule: Q01DX011 (ip), vehicle: other): 74 % of control
- T/C (dose: 2.25 mg/kg/injection, schedule: Q01DX011 (ip), vehicle: saline): 115 % of control
- T/C (dose: 3.0 mg/kg/injection, schedule: Q01DX011 (ip), vehicle: saline): 18 % of control and 35 % of control
- T/C (dose: 4.5 mg/kg/injection, schedule: Q01DX011 (ip), vehicle: other): 83 % of control
- T/C (dose: 4.5 mg/kg/injection, schedule: Q01DX011 (ip), vehicle: saline): 98 % of control
- T/C (dose: 6.0 mg/kg/injection, schedule: Q01DX011 (ip), vehicle: saline): 18 % of control
- T/C (dose: 9.0 mg/kg/injection, schedule: Q01DX011 (ip), vehicle: other): 52 % of control
- T/C (dose: 9.0 mg/kg/injection, schedule: Q01DX011 (ip), vehicle: saline): 56 % of control
- T/C (dose: 12.0 mg/kg/injection, schedule: Q01DX011 (ip), vehicle: saline): 2 % of control
- T/C (dose: 18.0 mg/kg/injection, schedule: Q01DX011 (ip), vehicle: other): 12 % of control
- T/C (dose: 18.0 mg/kg/injection, schedule: Q01DX011 (ip), vehicle: saline): 29 % of control
- T/C (dose: 24.0 mg/kg/injection, schedule: Q01DX011 (ip), vehicle: saline): 1 % of control

SMILES: Cn1ncc2c(NCc3ccccc3)ncnc21
- T/C (dose: 5.0 mg/kg/injection, schedule: Q01DX011 (ip), vehicle: carboxymethylcellulose (CMC)): 62 % of control and 66 % of control and 71 % of control
- T/C (dose: 10.0 mg/kg/injection, schedule: Q01DX011 (ip), vehicle: carboxymethylcellulose (CMC)): 43 % of control and 58 % of control and 60 % of control
- T/C (dose: 20.0 mg/kg/injection, schedule: Q01DX011 (ip), vehicle: carboxymethylcellulose (CMC)): 5 % of control and 24 % of control and 29 % of control

SMILES: CN1Cc2c(ccc3c2OCO3)[C@@H]2[C@H](O)Cc3cc4c(cc3[C@@H]21)OCO4
- T/C [1]: 167 % of control
- T/C (dose: 300.0 mg/kg/injection, schedule: Q01DX011 (ip), vehicle: carboxymethylcellulose (CMC)): 51 % of control

SMILES: COc1ccc(-n2cnc3c(N)nc(N)nc32)cc1
- T/C [2]: 68 % of control
- T/C [3]: 62 % of control
- T/C [4]: 50 % of control
- T/C (dose: 200.0 mg/kg/injection, schedule: Q01DX011 (ip), vehicle: methylcellulose (MC)): 57 % of control

SMILES: CSc1ncc(C)c(=O)[nH]1
- T/C (dose: 15.0 mg/kg/injection, schedule: Q01DX011 (ip), vehicle: methylcellulose (MC)): 113 % of control
- T/C (dose: 31.0 mg/kg/injection, schedule: Q01DX011 (ip), vehicle: methylcellulose (MC)): 124 % of control
- T/C (dose: 62.0 mg/kg/injection, schedule: Q01DX011 (ip), vehicle: methylcellulose (MC)): 99 % of control

SMILES: CCOc1nc(N)nc2n[nH]nc12
- T/C (dose: 75.0 mg/kg/injection, schedule: Q01DX011 (ip), vehicle: carboxymethylcellulose (CMC)): 67 % of control
- T/C [1]: 9 % of control

SMILES: c1cc[nH]c1
- T/C (dose: 40.0 mg/kg/injection, schedule: Q01DX011 (ip), vehicle: carboxymethylcellulose (CMC)): 101 % of control
- T/C (dose: 80.0 mg/kg/injection, schedule: Q01DX011 (ip), vehicle: carboxymethylcellulose (CMC)): 68 % of control
- T/C (dose: 160.0 mg/kg/injection, schedule: Q01DX011 (ip), vehicle: carboxymethylcellulose (CMC)): 113 % of control

SMILES: C[C@]12CCC(=O)C=C1CC[C@@H]1[C@@H]2[C@@H](O)C[C@@]2(C)[C@H]1CC[C@]2(O)C(=O)COC(=O)CCC(=O)O
- T/C (dose: 700.0 mg/kg/injection, schedule: Q01DX011 (sc), vehicle: steriod suspending solution): 10 % of control

SMILES: Clc1cccc(CSc2ncnc3c2ncn3C2CCCCO2)c1 (configuration not stated)
- T/C (dose: 30.0 mg/kg/injection, schedule: Q01DX011 (ip), vehicle: methylcellulose (MC)): 18 % of control
- T/C [4]: 6 % of control

SMILES: CC1(O)CC([CH2][Hg][I])OC([CH2][Hg][I])C1 (configuration not stated)
- T/C (dose: 25.0 mg/kg/injection, schedule: Q01DX011 (ip), vehicle: carboxymethylcellulose (CMC)): 96 % of control
- T/C (dose: 50.0 mg/kg/injection, schedule: Q01DX011 (ip), vehicle: carboxymethylcellulose (CMC)): 67 % of control

SMILES: CC1CC(C)(O)CC(C(O)CC2CC(=O)NC(=O)C2)C1=O (configuration not stated)
- T/C (dose: 0.05 mg/kg/injection, schedule: Q01DX011 (ip), vehicle: methylcellulose (MC)): 71 % of control
- T/C (dose: 0.1 mg/kg/injection, schedule: Q01DX011 (ip), vehicle: alkali diluted with saline): 62 % of control
- T/C (dose: 0.1 mg/kg/injection, schedule: Q01DX011 (ip), vehicle: methylcellulose (MC)): 44 % of control
- T/C (dose: 0.2 mg/kg/injection, schedule: Q01DX011 (ip), vehicle: alkali diluted with saline): 17 % of control
- T/C (dose: 0.2 mg/kg/injection, schedule: Q01DX011 (ip), vehicle: methylcellulose (MC)): 32 % of control

SMILES: CCCCn1cnc2c(SCc3ccc(F)cc3)nc(N)nc21
- T/C (dose: 3.1 mg/kg/injection, schedule: Q01DX011 (ip), vehicle: methylcellulose (MC)): 59 % of control
- T/C (dose: 6.25 mg/kg/injection, schedule: Q01DX011 (ip), vehicle: methylcellulose (MC)): 47 % of control
- T/C (dose: 12.5 mg/kg/injection, schedule: Q01DX011 (ip), vehicle: methylcellulose (MC)): 22 % of control
- T/C [2]: 10 % of control and 14 % of control
- T/C [3]: 2 % of control
